Results from article PMC8913295, “Cryo-EM structure of hexameric yeast Lon protease (PIM1) highlights the importance of conserved structural elements” (The Journal of Biological Chemistry, 2022).

T1: PIM1 (yeast Lon protease) (Saccharomyces cerevisiae, UniProt P36775)
T1 construct: 109 kDa; hexamer; residues 529-1133 resolved
T1 sequence (P36775 182-1133): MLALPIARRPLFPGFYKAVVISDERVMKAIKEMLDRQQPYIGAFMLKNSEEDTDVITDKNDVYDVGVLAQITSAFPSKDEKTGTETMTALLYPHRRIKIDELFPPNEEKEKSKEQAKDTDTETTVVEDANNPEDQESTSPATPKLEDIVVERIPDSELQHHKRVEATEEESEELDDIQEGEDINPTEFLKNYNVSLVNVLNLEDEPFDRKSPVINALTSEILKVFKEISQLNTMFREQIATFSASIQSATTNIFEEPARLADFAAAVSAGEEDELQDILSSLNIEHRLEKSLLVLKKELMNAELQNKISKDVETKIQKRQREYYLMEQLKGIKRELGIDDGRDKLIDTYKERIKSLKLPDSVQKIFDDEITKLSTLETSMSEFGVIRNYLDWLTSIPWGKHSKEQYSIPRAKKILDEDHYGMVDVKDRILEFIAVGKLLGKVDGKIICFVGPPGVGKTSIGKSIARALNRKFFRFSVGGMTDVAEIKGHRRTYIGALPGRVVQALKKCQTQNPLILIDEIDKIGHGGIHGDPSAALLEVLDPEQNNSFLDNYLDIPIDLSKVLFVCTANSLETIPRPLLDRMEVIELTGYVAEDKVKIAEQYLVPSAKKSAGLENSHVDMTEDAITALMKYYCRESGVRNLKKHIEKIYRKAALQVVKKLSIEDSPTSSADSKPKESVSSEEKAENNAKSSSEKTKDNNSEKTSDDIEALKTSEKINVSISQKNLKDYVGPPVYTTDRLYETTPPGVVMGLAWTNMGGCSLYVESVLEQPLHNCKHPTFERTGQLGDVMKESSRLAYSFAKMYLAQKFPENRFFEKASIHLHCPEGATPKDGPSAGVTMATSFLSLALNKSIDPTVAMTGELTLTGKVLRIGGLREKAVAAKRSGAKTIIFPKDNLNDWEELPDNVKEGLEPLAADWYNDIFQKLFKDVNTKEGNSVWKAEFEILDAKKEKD

B1: mature WT S. cerevisiae PIM1 lacking the mitochondrial targeting sequence (yeast Lon protease) (enzyme, UniProt P36775 182-1133, looked up)
chain: T1 sequence (P36775 182-1133)
notes: residues 529-1133 modelled in the structure; also called WT PIM1; source: E. coli BL21 (DE3) Codon Plus RIPL, purified (Ni-NTA, Superose 6 SEC)

Experiments:
[1] = molecular target: T1, PIM1 (yeast Lon protease); assay: cryo-EM structure ([…] Å); format: binding; settings: two seam subunits (ADP1-2) without gamma-phosphate density; no ADP added, 1 mM ATPγS in sample
[2] = molecular target: the molecule itself; assay: cryo-EM structure; WT PIM1 (3 mg/ml) after size-exclusion chromatography, incubated with 1 mM ATPγS on ice for 20 min, plunge-frozen; reconstruction at ~3.2 Å

Molecule | cryo-EM structure (3.2 Å) [1] | stoichiometry N [2]
Nc1ncnc2c1ncn2[C@@H]1O[C@H](COP(=O)(O)OP(=O)(O)O)[C@@H](O)[C@H]1O [ADP] | do not contain density for a γ-phosphate and are named ADP1 and ADP2 | –
B1 | – | 6
